We go through one compound from paper PMC7815315, “Atomic structures of respiratory complex III2, complex IV, and supercomplex III2-IV from vascular plants” (eLife, 2021).

SMILES strings stand for the structures.

This assay has as its target T1, VrCIII2 (complex III dimer, cytochrome bc1 complex); cytochrome b (COB) sites (Vigna radiata, UniProt E9KZM1).
T1 construct: native obligate dimer, 10 subunits per monomer, from mitochondria of etiolated hypocotyls; digitonin-extracted, amphipol A8-35; RNA-edited COB; partially purified (sucrose gradient); with Cytochrome c1, heme protein, mitochondrial; Cytochrome b-c1 complex subunit Rieske, mitochondrial; Mitochondrial-processing peptidase subunit alpha; Mitochondrial-processing peptidase subunit beta; Cytochrome b-c1 complex subunit 6; Cytochrome b-c1 complex subunit 7; Cytochrome b-c1 complex subunit 8; Cytochrome b-c1 complex subunit 9; Cytochrome b-c1 complex subunit 10
Kind of assay: spectroscopic cytochrome c reduction at […] nm, pooled gradient fractions. The format is biochemical. The conditions noted are these: 100 uM reduced decylubiquinone, 100 uM equine cyt c, pH 7.8, room temperature.

On to `CCCCCCCCCCc1c(C)c(O)c(OC)c(OC)c1O` [reduced decylubiquinone], for which the “spectroscopic cytochrome c reduction at 550 nm, pooled gradient fractions” value is on record as “CIII2 respiratory activity (electron transfer from reduced decylubiquinone to cytochrome c)”.
